In publication PMC12621043, “Un-LOK-ing a New Approach for Conformational Selective Targeting of STK10 (LOK)” (ACS Medicinal Chemistry Letters, 2025):

What follows are compounds tested against T1, STK10 (Homo sapiens, UniProt O94804) (assay: DSF Tm panel). Details: 10 μM compound.
T1 construct: purchased in-house DSF kinase panel (SGC-style construct names; the trailing letter is the construct ID)
Format: binding

T1 sequence (O94804 18-317 limits assumed): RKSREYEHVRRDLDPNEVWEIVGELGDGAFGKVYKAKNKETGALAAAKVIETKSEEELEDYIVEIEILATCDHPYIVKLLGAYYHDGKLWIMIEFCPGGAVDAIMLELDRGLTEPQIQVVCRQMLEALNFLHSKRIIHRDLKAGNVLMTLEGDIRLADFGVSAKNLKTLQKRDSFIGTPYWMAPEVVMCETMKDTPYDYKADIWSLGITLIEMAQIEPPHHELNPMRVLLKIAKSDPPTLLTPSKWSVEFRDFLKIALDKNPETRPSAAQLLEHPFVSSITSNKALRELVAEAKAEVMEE

In order of rising ΔTm at 10 µM:
1. COc1ccc(CNC(=O)Nc2ccc3cc2OCCOCCNc2ccn4ncc-3c4n2)cc1 [compound 31]  6 °C
2. COc1cccc(CNC(=O)Nc2ccc3cc2OCCOCCNc2ccn4ncc-3c4n2)c1 [compound 30]  7.1 °C

Same assay, conditions: 10 μM compound, 10 µM

In the case of COc1ccc(CNC(=O)Nc2ccc3cc2OCCOCCNc2ccn4ncc-3c4n2)cc1 [compound 31], the “ΔTm STK10” value is reported as 6,7 °C.

These compounds were tested against T2, UKL3A (ULK3A) (Homo sapiens, UniProt Q6PHR2) (assay: DSF Tm panel). Details: 10 μM compound.
T2 construct: purchased in-house DSF kinase panel (SGC-style construct names; the trailing letter is the construct ID)
T2 sequence (Q6PHR2 1-279): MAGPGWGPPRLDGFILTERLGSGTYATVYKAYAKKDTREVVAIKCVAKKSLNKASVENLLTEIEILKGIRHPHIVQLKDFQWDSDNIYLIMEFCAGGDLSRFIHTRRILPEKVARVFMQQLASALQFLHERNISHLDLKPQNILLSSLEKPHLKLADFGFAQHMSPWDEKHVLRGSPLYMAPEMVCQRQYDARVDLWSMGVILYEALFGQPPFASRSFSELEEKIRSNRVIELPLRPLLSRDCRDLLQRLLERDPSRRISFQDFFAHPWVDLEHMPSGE
Format: binding

In order of rising ΔTm at 10 µM:
1. COc1cccc(CNC(=O)Nc2ccc3cc2OCCOCCNc2ccn4ncc-3c4n2)c1 [compound 30]  4.4 °C
2. COc1ccc(CNC(=O)Nc2ccc3cc2OCCOCCNc2ccn4ncc-3c4n2)cc1 [compound 31]  6.1 °C

These compounds were tested against T3, CLK1A (Homo sapiens, UniProt P49759) (assay: DSF Tm panel). Details: 10 μM compound.
T3 construct: purchased in-house DSF kinase panel (SGC-style construct names; the trailing letter is the construct ID)
Format: binding

T3 sequence (P49759 148-484): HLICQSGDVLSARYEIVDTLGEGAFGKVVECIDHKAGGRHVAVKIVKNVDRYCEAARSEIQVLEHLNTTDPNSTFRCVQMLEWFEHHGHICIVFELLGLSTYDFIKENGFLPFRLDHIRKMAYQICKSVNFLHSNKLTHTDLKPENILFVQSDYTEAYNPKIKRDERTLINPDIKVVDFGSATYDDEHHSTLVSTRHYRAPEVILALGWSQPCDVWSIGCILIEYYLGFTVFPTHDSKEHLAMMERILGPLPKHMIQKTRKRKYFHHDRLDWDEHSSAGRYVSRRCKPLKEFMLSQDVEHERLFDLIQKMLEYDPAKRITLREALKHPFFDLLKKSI

In order of rising ΔTm at 10 µM:
1. COc1cccc(CNC(=O)Nc2ccc3cc2OCCOCCNc2ccn4ncc-3c4n2)c1 [compound 30]  2.5 °C
2. COc1ccc(CNC(=O)Nc2ccc3cc2OCCOCCNc2ccn4ncc-3c4n2)cc1 [compound 31]  2.8 °C

What follows are compounds tested against T4, DAPK3 (DAPK3A) (Homo sapiens, UniProt O43293) (assay: DSF Tm panel). Details: 10 μM compound.
T4 construct: purchased in-house DSF kinase panel (SGC-style construct names; the trailing letter is the construct ID)
Format: binding

T4 sequence (O43293 whole entry): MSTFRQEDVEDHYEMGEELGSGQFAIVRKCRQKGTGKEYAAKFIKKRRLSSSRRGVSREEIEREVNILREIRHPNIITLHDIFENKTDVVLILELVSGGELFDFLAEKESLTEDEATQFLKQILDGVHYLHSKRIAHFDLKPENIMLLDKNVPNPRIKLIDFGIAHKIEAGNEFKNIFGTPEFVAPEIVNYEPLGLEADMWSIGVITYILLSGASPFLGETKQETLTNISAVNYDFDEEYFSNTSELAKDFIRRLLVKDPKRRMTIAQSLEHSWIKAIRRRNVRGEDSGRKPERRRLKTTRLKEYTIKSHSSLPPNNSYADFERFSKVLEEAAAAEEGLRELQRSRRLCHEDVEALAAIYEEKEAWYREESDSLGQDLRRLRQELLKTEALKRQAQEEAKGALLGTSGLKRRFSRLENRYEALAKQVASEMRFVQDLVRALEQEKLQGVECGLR

In order of falling ΔTm at 10 µM:
1. COc1cccc(CNC(=O)Nc2ccc3cc2OCCOCCNc2ccn4ncc-3c4n2)c1 [compound 30]  1.2 °C
2. COc1ccc(CNC(=O)Nc2ccc3cc2OCCOCCNc2ccn4ncc-3c4n2)cc1 [compound 31]  1.2 °C

Each compound was assayed against T5, MAP3K5A (Homo sapiens, UniProt Q99683) (assay: DSF Tm panel). Details: 10 μM compound.
T5 construct: purchased in-house DSF kinase panel (SGC-style construct names; the trailing letter is the construct ID)
Format: binding

T5 sequence (Q99683 659-951): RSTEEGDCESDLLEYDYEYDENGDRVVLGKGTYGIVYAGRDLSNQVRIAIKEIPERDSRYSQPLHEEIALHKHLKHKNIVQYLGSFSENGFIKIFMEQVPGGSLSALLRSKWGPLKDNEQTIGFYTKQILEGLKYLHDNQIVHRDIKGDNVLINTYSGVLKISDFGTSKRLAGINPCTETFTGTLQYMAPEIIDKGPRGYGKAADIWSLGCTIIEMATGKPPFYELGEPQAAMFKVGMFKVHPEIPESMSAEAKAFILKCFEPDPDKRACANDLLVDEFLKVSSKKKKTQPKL

In order of rising ΔTm at 10 µM:
1. COc1cccc(CNC(=O)Nc2ccc3cc2OCCOCCNc2ccn4ncc-3c4n2)c1 [compound 30]  1.5 °C
2. COc1ccc(CNC(=O)Nc2ccc3cc2OCCOCCNc2ccn4ncc-3c4n2)cc1 [compound 31]  1.6 °C

The compounds below were run against T6, PCTK1A (Homo sapiens, UniProt Q00536) (assay: DSF Tm panel). Details: 10 μM compound.
T6 construct: purchased in-house DSF kinase panel (SGC-style construct names; the trailing letter is the construct ID)
Format: binding

T6 sequence (Q00536 163-478): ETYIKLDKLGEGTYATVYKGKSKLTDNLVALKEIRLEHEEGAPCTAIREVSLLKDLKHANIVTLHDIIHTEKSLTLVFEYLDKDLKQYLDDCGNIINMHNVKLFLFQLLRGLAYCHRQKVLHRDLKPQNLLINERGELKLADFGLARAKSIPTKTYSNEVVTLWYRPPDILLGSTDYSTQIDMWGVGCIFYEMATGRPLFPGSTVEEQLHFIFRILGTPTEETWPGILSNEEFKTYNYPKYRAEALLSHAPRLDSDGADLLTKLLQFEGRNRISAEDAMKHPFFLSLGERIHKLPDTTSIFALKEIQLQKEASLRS

In order of falling ΔTm at 10 µM:
1. COc1ccc(CNC(=O)Nc2ccc3cc2OCCOCCNc2ccn4ncc-3c4n2)cc1 [compound 31]  1.9 °C
2. COc1cccc(CNC(=O)Nc2ccc3cc2OCCOCCNc2ccn4ncc-3c4n2)c1 [compound 30]  1.3 °C

What follows are compounds tested against T7, MAP2K6A (Homo sapiens, UniProt P52564) (assay: DSF Tm panel). Details: 10 μM compound.
T7 construct: purchased in-house DSF kinase panel (SGC-style construct names; the trailing letter is the construct ID)
T7 sequence (P52564 53-314): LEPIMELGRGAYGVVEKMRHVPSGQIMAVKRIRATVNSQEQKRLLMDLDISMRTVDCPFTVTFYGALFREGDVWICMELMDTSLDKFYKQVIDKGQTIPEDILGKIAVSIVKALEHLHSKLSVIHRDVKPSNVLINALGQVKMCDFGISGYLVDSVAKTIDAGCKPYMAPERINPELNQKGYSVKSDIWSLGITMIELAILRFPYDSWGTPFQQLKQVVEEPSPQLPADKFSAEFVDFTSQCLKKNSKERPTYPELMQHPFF
Format: binding

In order of falling ΔTm at 10 µM:
1. COc1ccc(CNC(=O)Nc2ccc3cc2OCCOCCNc2ccn4ncc-3c4n2)cc1 [compound 31]  1.2 °C
2. COc1cccc(CNC(=O)Nc2ccc3cc2OCCOCCNc2ccn4ncc-3c4n2)c1 [compound 30]  0.9 °C

What follows are compounds tested against T8, CAMK2BA (Homo sapiens, UniProt Q13554) (assay: DSF Tm panel). Details: 10 μM compound.
T8 construct: purchased in-house DSF kinase panel (SGC-style construct names; the trailing letter is the construct ID)
Format: binding

T8 sequence (Q13554 11-303): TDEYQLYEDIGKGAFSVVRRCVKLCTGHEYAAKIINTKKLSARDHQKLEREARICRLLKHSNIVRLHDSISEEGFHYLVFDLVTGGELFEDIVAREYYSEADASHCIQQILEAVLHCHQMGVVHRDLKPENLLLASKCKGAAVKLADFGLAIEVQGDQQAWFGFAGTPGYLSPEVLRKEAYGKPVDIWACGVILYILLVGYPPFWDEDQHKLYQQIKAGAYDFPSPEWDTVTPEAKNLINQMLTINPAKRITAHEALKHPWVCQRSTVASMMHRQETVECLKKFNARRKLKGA

In order of falling ΔTm at 10 µM:
1. COc1ccc(CNC(=O)Nc2ccc3cc2OCCOCCNc2ccn4ncc-3c4n2)cc1 [compound 31]  -0.1 °C
2. COc1cccc(CNC(=O)Nc2ccc3cc2OCCOCCNc2ccn4ncc-3c4n2)c1 [compound 30]  -0.2 °C

What follows are compounds tested against T9, ABL1 (ABL1A) (Homo sapiens, UniProt P00519) (assay: DSF Tm panel). Details: 10 μM compound.
T9 construct: purchased in-house DSF kinase panel (SGC-style construct names; the trailing letter is the construct ID)
T9 sequence (P00519 229-512): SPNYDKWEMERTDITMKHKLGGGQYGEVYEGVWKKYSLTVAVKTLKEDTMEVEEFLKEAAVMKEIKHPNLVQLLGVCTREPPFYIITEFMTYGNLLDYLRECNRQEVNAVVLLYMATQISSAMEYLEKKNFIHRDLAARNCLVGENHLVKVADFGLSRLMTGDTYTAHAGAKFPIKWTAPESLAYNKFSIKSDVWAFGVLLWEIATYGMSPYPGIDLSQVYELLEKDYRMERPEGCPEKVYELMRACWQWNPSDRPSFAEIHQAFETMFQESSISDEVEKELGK
Format: binding

In order of falling ΔTm at 10 µM:
1. COc1ccc(CNC(=O)Nc2ccc3cc2OCCOCCNc2ccn4ncc-3c4n2)cc1 [compound 31]  1.7 °C
2. COc1cccc(CNC(=O)Nc2ccc3cc2OCCOCCNc2ccn4ncc-3c4n2)c1 [compound 30]  1.5 °C

The compounds below were run against T10, PIM1 (PIM1A) (Homo sapiens, UniProt P11309) (assay: DSF Tm panel). Details: 10 μM compound.
T10 construct: purchased in-house DSF kinase panel (SGC-style construct names; the trailing letter is the construct ID)
Format: binding

T10 sequence (P11309 whole entry): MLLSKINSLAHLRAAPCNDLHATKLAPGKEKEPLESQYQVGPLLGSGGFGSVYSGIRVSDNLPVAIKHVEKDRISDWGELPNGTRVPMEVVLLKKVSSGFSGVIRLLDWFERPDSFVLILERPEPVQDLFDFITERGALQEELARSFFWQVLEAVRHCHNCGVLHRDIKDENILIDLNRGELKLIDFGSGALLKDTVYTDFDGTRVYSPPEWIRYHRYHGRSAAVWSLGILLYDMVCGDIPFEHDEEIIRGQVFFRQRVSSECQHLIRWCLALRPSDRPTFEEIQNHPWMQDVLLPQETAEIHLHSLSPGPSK

In order of falling ΔTm at 10 µM:
1. COc1ccc(CNC(=O)Nc2ccc3cc2OCCOCCNc2ccn4ncc-3c4n2)cc1 [compound 31]  2 °C
2. COc1cccc(CNC(=O)Nc2ccc3cc2OCCOCCNc2ccn4ncc-3c4n2)c1 [compound 30]  1 °C

These compounds were tested against T11, GPRK5A (Homo sapiens, UniProt P34947) (assay: DSF Tm panel). Details: 10 μM compound.
T11 construct: purchased in-house DSF kinase panel (SGC-style construct names; the trailing letter is the construct ID)
Format: binding

T11 sequence (P34947 186-514): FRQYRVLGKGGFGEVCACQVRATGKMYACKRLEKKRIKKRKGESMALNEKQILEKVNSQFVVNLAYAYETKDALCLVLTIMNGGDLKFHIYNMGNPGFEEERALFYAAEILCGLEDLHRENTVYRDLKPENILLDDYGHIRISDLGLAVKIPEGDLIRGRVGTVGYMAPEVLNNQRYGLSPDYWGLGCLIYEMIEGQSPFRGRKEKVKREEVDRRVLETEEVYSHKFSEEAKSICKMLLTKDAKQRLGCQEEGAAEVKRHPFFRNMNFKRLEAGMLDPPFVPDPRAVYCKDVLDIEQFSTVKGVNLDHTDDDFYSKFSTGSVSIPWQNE

In order of rising ΔTm at 10 µM:
1. COc1cccc(CNC(=O)Nc2ccc3cc2OCCOCCNc2ccn4ncc-3c4n2)c1 [compound 30]  0.5 °C
2. COc1ccc(CNC(=O)Nc2ccc3cc2OCCOCCNc2ccn4ncc-3c4n2)cc1 [compound 31]  0.9 °C

The compounds below were run against T12, BRAFA (Homo sapiens, UniProt P15056) (assay: DSF Tm panel). Details: 10 μM compound.
T12 construct: purchased in-house DSF kinase panel (SGC-style construct names; the trailing letter is the construct ID)
Format: binding

T12 sequence (P15056 448-723): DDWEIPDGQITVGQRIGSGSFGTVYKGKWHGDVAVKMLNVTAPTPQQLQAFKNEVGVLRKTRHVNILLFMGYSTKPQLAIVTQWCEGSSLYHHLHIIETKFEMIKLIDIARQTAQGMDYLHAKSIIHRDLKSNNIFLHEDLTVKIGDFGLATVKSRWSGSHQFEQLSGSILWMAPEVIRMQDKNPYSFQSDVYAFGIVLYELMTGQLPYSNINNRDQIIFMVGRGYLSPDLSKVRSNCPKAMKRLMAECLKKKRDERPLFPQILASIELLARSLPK

In order of rising ΔTm at 10 µM:
1. COc1ccc(CNC(=O)Nc2ccc3cc2OCCOCCNc2ccn4ncc-3c4n2)cc1 [compound 31]  -0.5 °C
2. COc1cccc(CNC(=O)Nc2ccc3cc2OCCOCCNc2ccn4ncc-3c4n2)c1 [compound 30]  -0.2 °C

The compounds below were run against T13, CSNK1DA (Homo sapiens, UniProt P48730) (assay: DSF Tm panel). Details: 10 μM compound.
T13 construct: purchased in-house DSF kinase panel (SGC-style construct names; the trailing letter is the construct ID)
T13 sequence (P48730 1-294): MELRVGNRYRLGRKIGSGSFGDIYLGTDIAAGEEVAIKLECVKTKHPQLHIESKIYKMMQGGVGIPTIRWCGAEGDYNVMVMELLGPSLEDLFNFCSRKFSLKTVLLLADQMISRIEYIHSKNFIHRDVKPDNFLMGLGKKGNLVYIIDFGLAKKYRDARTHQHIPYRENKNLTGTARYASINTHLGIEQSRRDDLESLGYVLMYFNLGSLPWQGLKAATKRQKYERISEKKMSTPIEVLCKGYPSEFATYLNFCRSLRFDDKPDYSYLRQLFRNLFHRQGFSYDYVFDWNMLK
Format: binding

In order of rising ΔTm at 10 µM:
1. COc1ccc(CNC(=O)Nc2ccc3cc2OCCOCCNc2ccn4ncc-3c4n2)cc1 [compound 31]  0.1 °C
2. COc1cccc(CNC(=O)Nc2ccc3cc2OCCOCCNc2ccn4ncc-3c4n2)c1 [compound 30]  0.2 °C

The compounds below were run against T14, OSR1A (Homo sapiens, UniProt O95747) (assay: DSF Tm panel). Details: 10 μM compound.
T14 construct: purchased in-house DSF kinase panel (SGC-style construct names; the trailing letter is the construct ID)
Format: binding

T14 sequence (O95747 17-291): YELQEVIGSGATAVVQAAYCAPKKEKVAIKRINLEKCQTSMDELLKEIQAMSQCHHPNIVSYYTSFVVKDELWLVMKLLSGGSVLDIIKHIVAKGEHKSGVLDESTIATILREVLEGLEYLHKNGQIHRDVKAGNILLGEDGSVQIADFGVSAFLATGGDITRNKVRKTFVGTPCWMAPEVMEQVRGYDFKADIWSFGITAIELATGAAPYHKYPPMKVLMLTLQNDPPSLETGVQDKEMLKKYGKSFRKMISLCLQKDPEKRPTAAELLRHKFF

In order of falling ΔTm at 10 µM:
1. COc1ccc(CNC(=O)Nc2ccc3cc2OCCOCCNc2ccn4ncc-3c4n2)cc1 [compound 31]  1.3 °C
2. COc1cccc(CNC(=O)Nc2ccc3cc2OCCOCCNc2ccn4ncc-3c4n2)c1 [compound 30]  1.2 °C

These compounds were tested against T15, DMPK1A (Homo sapiens, UniProt Q09013) (assay: DSF Tm panel). Details: 10 μM compound.
T15 construct: purchased in-house DSF kinase panel (SGC-style construct names; the trailing letter is the construct ID)
T15 sequence (Q09013 1-629): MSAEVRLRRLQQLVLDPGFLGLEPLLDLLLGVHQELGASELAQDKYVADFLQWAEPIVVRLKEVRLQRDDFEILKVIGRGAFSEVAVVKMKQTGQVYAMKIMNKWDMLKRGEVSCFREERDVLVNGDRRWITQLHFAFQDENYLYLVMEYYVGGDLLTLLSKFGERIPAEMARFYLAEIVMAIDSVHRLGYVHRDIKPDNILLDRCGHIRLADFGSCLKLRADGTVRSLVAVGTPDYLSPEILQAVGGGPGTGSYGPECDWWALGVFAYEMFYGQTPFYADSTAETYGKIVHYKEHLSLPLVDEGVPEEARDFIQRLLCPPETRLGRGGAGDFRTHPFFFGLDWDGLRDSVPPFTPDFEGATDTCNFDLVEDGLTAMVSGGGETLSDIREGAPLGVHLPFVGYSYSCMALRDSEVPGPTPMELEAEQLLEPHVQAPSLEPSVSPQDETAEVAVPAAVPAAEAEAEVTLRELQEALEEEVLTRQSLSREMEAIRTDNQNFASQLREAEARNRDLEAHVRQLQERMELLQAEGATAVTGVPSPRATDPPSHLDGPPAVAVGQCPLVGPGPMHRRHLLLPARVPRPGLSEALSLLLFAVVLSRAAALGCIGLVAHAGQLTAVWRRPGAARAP
Format: binding

In order of falling ΔTm at 10 µM:
1. COc1ccc(CNC(=O)Nc2ccc3cc2OCCOCCNc2ccn4ncc-3c4n2)cc1 [compound 31]  1 °C
2. COc1cccc(CNC(=O)Nc2ccc3cc2OCCOCCNc2ccn4ncc-3c4n2)c1 [compound 30]  0.4 °C

What follows are compounds tested against T16, SRPK1A (Homo sapiens, UniProt Q96SB4) (assay: DSF Tm panel). Details: 10 μM compound.
T16 construct: purchased in-house DSF kinase panel (SGC-style construct names; the trailing letter is the construct ID)
Format: binding

T16 sequence (Q96SB4 80-653): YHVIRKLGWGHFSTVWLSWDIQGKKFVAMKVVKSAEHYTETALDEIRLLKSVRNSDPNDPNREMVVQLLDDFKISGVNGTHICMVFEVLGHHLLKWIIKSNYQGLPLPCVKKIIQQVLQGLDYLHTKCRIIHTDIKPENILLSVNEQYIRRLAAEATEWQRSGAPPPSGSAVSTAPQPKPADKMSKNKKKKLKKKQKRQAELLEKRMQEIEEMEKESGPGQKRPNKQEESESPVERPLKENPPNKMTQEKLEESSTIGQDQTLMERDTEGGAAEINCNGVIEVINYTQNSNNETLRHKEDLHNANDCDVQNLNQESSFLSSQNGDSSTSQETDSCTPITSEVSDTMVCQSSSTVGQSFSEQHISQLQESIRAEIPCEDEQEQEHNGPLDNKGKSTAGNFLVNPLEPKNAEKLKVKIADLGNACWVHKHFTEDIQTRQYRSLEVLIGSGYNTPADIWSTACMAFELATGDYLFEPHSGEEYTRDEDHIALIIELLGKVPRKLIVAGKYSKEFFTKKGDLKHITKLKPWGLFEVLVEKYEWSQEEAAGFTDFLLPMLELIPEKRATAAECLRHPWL

In order of falling ΔTm at 10 µM:
1. COc1cccc(CNC(=O)Nc2ccc3cc2OCCOCCNc2ccn4ncc-3c4n2)c1 [compound 30]  0.1 °C
2. COc1ccc(CNC(=O)Nc2ccc3cc2OCCOCCNc2ccn4ncc-3c4n2)cc1 [compound 31]  0.1 °C

Each compound was assayed against T17, AKT3A (Homo sapiens, UniProt Q9Y243) (assay: DSF Tm panel). Details: 10 μM compound.
T17 construct: purchased in-house DSF kinase panel (SGC-style construct names; the trailing letter is the construct ID)
Format: binding

T17 sequence (Q9Y243 148-479): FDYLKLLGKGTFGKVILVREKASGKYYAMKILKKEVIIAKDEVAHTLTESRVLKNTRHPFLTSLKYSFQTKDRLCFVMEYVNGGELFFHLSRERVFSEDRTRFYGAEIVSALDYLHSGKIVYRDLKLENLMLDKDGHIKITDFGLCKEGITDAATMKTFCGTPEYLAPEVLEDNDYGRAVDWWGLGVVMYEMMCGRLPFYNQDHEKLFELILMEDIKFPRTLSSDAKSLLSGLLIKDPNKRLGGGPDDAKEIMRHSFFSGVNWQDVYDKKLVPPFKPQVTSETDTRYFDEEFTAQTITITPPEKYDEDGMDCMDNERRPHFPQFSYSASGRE

In order of rising ΔTm at 10 µM:
1. COc1cccc(CNC(=O)Nc2ccc3cc2OCCOCCNc2ccn4ncc-3c4n2)c1 [compound 30]  0.2 °C
2. COc1ccc(CNC(=O)Nc2ccc3cc2OCCOCCNc2ccn4ncc-3c4n2)cc1 [compound 31]  1.6 °C

What follows are compounds tested against T18, MAPK14A (Homo sapiens, UniProt Q16539) (assay: DSF Tm panel). Details: 10 μM compound.
T18 construct: purchased in-house DSF kinase panel (SGC-style construct names; the trailing letter is the construct ID)
Format: binding

T18 sequence (Q16539 whole entry): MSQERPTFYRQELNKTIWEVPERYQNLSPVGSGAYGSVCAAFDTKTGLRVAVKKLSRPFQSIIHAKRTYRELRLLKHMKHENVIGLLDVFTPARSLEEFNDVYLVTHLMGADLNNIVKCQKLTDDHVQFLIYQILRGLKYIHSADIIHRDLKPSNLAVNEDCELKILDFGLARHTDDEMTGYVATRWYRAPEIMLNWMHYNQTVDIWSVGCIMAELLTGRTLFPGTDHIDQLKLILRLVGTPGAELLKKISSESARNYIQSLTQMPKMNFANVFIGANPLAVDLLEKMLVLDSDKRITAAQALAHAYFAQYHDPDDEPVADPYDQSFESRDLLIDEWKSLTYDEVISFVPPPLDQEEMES

In order of rising ΔTm at 10 µM:
1. COc1cccc(CNC(=O)Nc2ccc3cc2OCCOCCNc2ccn4ncc-3c4n2)c1 [compound 30]  0.9 °C
2. COc1ccc(CNC(=O)Nc2ccc3cc2OCCOCCNc2ccn4ncc-3c4n2)cc1 [compound 31]  1.5 °C
